EC50, IC50 and AC50 data for five compounds are collected here from ChEMBL document CHEMBL1201862, “PubChem BioAssay data set” (2004).

Activity calls are given as the source filed them.

The target of test [1] is Peroxisome proliferator-activated receptor gamma/Nuclear receptor coactivator 2 (Homo sapiens, UniProt P37231). Kind of test: TR-FRET dose response biochemical High Throughput Screening assay for agonists of the steroid receptor coactivator 2 (SRC-2) recruitment by the peroxisome proliferator-activated receptor gamma (PPAR gamma): non-selective agonists. [Related pubchem assays: 1297, 1032 ]. The class given is functional. A general note: In TR-FRET formats the signal depends on donor and acceptor labels being close together.
Chain of Peroxisome proliferator-activated receptor gamma/Nuclear receptor coactivator 2 (P37231 whole entry): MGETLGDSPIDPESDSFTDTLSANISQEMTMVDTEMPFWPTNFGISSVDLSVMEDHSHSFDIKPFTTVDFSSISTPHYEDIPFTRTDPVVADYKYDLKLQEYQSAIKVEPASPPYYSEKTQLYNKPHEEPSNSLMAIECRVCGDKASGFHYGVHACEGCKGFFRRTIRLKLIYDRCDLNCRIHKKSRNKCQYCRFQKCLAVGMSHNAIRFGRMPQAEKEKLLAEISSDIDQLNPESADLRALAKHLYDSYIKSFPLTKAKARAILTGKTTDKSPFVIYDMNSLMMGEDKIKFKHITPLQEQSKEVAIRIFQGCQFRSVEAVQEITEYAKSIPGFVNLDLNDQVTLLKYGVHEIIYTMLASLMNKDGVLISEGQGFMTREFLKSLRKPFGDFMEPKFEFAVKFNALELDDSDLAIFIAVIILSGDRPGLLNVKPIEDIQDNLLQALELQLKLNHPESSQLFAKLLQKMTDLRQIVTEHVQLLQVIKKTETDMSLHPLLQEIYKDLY
Chain of Peroxisome proliferator-activated receptor gamma/Nuclear receptor coactivator 2 (Q15596 whole entry, further chain): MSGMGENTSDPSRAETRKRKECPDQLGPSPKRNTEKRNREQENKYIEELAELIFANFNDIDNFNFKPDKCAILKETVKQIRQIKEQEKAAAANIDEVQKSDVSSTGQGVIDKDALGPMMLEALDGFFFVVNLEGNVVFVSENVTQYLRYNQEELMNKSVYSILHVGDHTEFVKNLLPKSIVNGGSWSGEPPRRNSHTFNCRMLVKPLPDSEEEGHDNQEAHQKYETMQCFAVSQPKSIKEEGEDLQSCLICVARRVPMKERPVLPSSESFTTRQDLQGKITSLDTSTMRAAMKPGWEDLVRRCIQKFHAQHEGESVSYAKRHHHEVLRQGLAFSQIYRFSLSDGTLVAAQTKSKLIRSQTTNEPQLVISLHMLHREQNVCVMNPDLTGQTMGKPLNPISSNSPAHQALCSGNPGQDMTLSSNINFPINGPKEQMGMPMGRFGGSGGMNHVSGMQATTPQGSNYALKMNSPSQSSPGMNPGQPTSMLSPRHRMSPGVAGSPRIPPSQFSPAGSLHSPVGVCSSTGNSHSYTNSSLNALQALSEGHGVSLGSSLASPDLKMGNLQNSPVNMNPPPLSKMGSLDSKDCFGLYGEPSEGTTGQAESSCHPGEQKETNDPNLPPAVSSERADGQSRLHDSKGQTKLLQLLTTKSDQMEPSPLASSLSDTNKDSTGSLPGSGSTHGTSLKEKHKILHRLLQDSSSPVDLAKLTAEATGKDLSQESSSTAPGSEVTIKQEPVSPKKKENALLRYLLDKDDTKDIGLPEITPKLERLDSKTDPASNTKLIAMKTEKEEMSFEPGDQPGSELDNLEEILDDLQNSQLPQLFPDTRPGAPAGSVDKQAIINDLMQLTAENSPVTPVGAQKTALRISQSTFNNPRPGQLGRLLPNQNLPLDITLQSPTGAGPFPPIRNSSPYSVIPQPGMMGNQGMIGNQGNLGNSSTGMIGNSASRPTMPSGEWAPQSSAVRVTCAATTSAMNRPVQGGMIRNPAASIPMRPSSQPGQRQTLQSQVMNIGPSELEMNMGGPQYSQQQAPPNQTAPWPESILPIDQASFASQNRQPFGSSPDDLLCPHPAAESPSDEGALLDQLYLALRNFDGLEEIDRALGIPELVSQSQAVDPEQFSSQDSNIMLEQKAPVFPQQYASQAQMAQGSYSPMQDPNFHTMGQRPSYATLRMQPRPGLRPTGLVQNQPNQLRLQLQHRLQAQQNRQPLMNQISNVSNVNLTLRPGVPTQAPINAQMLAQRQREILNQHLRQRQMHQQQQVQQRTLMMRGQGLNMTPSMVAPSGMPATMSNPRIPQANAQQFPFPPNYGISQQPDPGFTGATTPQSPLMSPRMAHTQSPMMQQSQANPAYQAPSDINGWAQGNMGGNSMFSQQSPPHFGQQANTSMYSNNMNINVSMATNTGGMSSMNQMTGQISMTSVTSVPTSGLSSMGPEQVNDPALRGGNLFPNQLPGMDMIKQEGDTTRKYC

Test [2] has as its target Peroxisome proliferator-activated receptor gamma/Nuclear receptor coactivator 1 (Homo sapiens, UniProt P37231). In words: TR-FRET dose response biochemical High Throughput Screening assay for agonists of the steroid receptor coactivator 1 (SRC-1) recruitment by the peroxisome proliferator-activated receptor gamma (PPAR gamma): non-selective agonists. [Related pubchem assays (depositor defined):AID1300, AID1808, AID504735, AID631]. The class given is protein assay.

Test [3] concerns the target Peroxisome proliferator-activated receptor gamma/Nuclear receptor coactivator 3 (Homo sapiens, UniProt P37231). In words: TR-FRET dose response biochemical High Throughput Screening assay for agonists of the steroid receptor coactivator 3 (SRC-3) recruitment by the peroxisome proliferator-activated receptor gamma (PPAR gamma): non-selective agonists. [Related pubchem assays: 1301 (Confirmation screen.), 1048 (Primary screen.)]. The format is functional.

Test [4] concerns the target T1, G-protein coupled receptor 35 (Homo sapiens, UniProt Q9HC97). In words: SAR analysis of Agonists of the GPR35 Receptor using an Image-Based Assay - Set 4. [Related pubchem assays (depositor defined):AID2013, AID2026]. The class given is functional.
Test [5] concerns the target T2, Probable nicotinate-nucleotide adenylyltransferase (Staphylococcus aureus (strain N315), UniProt P65502). The class given is functional, Staphylococcus aureus subsp. aureus N315.
The target in test [6] is G-protein coupled receptor 55 (Homo sapiens, UniProt Q9Y2T6). In words: SAR Analysis of Selective Antagonists of GPR55 using an Image-Based Assay - Set 4. [Related pubchem assays (depositor defined):AID2013, AID2026]. The class given is functional.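 Also: antagonism of response to 5 µM lysophosphatidylinositol agonist.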
In test [7] the target is T1, G-protein coupled receptor 35. Kind of test: SAR analysis of Antagonists of the GPR35 Receptor using an Image-Based Assay - Set 6. [Related pubchem assays (depositor defined):AID2013, AID2026]. The format is functional.
Test [8] has as its target T2, Probable nicotinate-nucleotide adenylyltransferase. The format is functional, Staphylococcus aureus subsp. aureus N315. Conditions: read-out: IC50_Mean.
In test [9] the target is T3, Cannabinoid receptor 2 (Homo sapiens, UniProt P34972). In words: SAR analysis of agonists of the Cannabinoid Receptor 2 using an Image-Based Assay - Set 3. [Related pubchem assays (depositor defined):AID2013, AID2026]. The format is functional.
T3 sequence (P34972 whole entry): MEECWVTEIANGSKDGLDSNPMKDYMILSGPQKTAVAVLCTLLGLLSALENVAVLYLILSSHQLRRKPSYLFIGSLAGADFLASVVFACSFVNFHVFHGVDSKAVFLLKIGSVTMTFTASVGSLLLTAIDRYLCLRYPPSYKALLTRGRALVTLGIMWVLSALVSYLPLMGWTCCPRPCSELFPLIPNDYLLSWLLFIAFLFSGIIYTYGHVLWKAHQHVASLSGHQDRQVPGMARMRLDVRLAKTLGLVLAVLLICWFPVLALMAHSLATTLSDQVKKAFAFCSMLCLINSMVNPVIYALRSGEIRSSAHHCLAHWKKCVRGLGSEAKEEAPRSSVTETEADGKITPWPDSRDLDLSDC
Test [10] addresses T4, Cannabinoid receptor 1 (Homo sapiens, UniProt P21554). In words: SAR analysis of agonists of the Cannabinoid Receptor 1 using an Image-Based Assay - Set 4. [Related pubchem assays (depositor defined):AID2013, AID2026]. The class given is functional.
Test [11] deals with T4, Cannabinoid receptor 1. In words: SAR analysis of antagonists of the Cannabinoid Receptor 1 using an Image-Based Assay - Set 4. [Related pubchem assays (depositor defined):AID2013, AID2026]. The class given is functional.
Test [12] deals with T3, Cannabinoid receptor 2. Kind of test: SAR analysis of antagonists of the Cannabinoid Receptor 2 using an Image-Based Assay - Set 3. [Related pubchem assays (depositor defined):AID2013, AID2026]. The format is functional.
Test [13] has as its target Voltage-gated inwardly rectifying potassium channel KCNH2 (Homo sapiens, UniProt Q12809). In words: hERG protection from proarrhythmic block, potency, dose response, cell-based, thallium flux (AID 2121). The class given is ADME.
Test [14] relates to BJ. Kind of test: cytotoxicity toward Ras-transformed BJeLR fibroblasts, dose response, cell-based, alamar blue fluorescence, cherrypicked samples (AID 2631).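 Also: confirmatory dose-response assay in RAS-dependent BJ fibroblasts engineered with TERT, LT and ST, with cytotoxicity read by fluorescence.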 The conditions noted are these: Homo sapiens. The format is functional. (Resazurin is reduced to fluorescent resorufin, in cell work by metabolically active cells.)
Test [15] concerns BJ. In words: cytotoxicity toward BJ-TERT fibroblasts, dose response, cell-based, RAS-independent, luminescence (AID 1933). The class given is functional. Conditions: Homo sapiens.
The target of test [16] is Sphingosine 1-phosphate receptor 4 (Homo sapiens, UniProt O95977). Kind of test: Fluorescence dose response cell-based high throughput screening assay for agonists of the Sphingosine 1-Phosphate Receptor 4 (S1P4). [Related pubchem assays: 1509 (Primary screen.), 1523 (Confirmation screen in triplicates.)]. The format is functional.
Test [17] concerns BJ. In words: cells. The class given is functional, cell-based. The conditions noted are these: Homo sapiens.
Test [18] is described as follows: cytotoxicity in HEK-293T cells, dose response, cytotoxicity control for TCR NF-kB inhibitor project, luminescence, T-cell screen hits (AID 489026).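 Also: cells exposed to compound about 14 hours before the viability readout.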 The class given is functional, cell-based.
The nature of test [19]: MDA-MB-231 cell growth inhibition, dose response, cytotoxicity control for RAD54 inhibitor project, CellTiter-Glo luminescence, cherry-pick (AID 651692). The class given is functional, cell-based. For orientation: In ATP-based viability assays light output follows the ATP content of the culture.
A short description of test [20]: cytotoxicity toward DRD oncogenic fibroblasts, dose response, cell-based, non-viral oncogenic, luminescence (AID 1934). Conditions: Homo sapiens. The class given is functional.
Test [21] concerns BJ. In words: cytotoxicity toward BJ-TERT-LT-ST fibroblasts, dose response, cell-based, RAS-independent, luminescence (AID 1935).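 Also: BJ fibroblasts immortalized with TERT plus LT and ST oncogenes.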 The format is functional. The conditions noted are these: Homo sapiens.
The next test addresses Paired box protein Pax-8 (Homo sapiens, UniProt Q06710). In words: inhibitors of PAX8-driven TPO luciferase reporter, dose response, RMG-I cells, cherry-pick (AID 687027).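 Also: luciferase reporter driven by Pax8 target thyroperoxidase promoter measured by SteadyGlo luminescence.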 The class given is functional, cell-based.
In test [22] the target is Sphingosine 1-phosphate receptor 1 (Homo sapiens, UniProt P21453). Kind of test: Fluorescence-based counterscreen assay for S1P4 agonists: Cell-based dose response high throughput screening assay to identify agonists of the Sphingosine 1-Phosphate Receptor 1 (S1P1). [Related pubchem assays (depositor defined):AID1509, AID1523, AID1801, AID463107, AID463118, AID463119, AID463122, AID463123, AID463129, AID463225, AID504400, AID504460]. The class given is functional.

For test [23], the target named is T5, DNA repair and recombination protein RAD54-like (Homo sapiens, UniProt Q92698).
T5 sequence (Q92698 whole entry): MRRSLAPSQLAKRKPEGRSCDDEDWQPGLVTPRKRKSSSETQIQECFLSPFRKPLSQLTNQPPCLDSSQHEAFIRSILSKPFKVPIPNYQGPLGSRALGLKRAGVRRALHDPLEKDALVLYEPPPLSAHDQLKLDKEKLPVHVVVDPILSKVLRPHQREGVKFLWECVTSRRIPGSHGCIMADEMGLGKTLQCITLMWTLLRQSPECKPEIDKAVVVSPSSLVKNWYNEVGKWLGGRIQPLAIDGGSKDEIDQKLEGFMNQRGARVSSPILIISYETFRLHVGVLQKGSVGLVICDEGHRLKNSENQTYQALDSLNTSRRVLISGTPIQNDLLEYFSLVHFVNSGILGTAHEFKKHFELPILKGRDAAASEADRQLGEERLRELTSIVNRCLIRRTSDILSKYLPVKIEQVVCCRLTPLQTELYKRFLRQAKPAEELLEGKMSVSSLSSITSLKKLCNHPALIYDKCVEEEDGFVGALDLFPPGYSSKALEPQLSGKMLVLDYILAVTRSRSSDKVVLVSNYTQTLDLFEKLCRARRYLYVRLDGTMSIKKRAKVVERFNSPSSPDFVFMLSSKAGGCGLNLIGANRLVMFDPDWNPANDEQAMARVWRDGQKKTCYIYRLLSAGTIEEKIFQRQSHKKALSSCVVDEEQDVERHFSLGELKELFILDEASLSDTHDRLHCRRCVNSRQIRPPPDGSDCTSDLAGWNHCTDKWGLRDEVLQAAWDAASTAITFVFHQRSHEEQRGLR
In words: inhibitors of human RAD54 branch migration, confirmation, biochemical, fluorescence, cherry-picked samples, dose series (AID 651657). The format is functional.

Test [24] addresses T6, DNA repair protein RAD52 homolog (Homo sapiens, UniProt P43351).
T6 sequence (P43351 whole entry): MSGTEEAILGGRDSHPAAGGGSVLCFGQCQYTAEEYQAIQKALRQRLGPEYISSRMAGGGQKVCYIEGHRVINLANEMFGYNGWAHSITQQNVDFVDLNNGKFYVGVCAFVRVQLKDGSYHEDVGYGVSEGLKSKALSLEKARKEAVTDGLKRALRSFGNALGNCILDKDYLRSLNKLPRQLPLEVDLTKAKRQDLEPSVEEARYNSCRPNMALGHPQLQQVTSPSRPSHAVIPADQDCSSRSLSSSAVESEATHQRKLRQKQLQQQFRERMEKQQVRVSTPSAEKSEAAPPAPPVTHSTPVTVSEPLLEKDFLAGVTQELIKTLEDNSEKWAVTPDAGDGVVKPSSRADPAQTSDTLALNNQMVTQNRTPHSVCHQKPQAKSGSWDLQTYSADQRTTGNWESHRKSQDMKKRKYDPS
The class given is functional, biochemical.

The target of test [25] is T7, Polyadenylate-binding protein 1 (Homo sapiens, UniProt P11940). In words: PABP1 MLLE–PAM2 interaction inhibitors, dose response, miRNA deadenylation inhibitor project, biochemical, fluorescence polarization, Cy5-PAM2 peptide, secondary (AID 602260). The class given is functional. The conditions noted are these: read-out: IC50_Mean.
Test [26] is described as follows: Luminescence-based cell-based high throughput dose response assay to identify activators of the DAF-12 from the parasite S. stercoralis (ssDAF-12). The class given is functional.
Test [27] concerns the target T7, Polyadenylate-binding protein 1. In words: PABP1 MLLE–PAM2 binding inhibitor potency, dose response, biochemical, fluorescence polarization, FITC-PAM2 peptide (AID 602259). The format is functional. The conditions noted are these: read-out: IC50_Mean.

T4 sequence (P21554 whole entry): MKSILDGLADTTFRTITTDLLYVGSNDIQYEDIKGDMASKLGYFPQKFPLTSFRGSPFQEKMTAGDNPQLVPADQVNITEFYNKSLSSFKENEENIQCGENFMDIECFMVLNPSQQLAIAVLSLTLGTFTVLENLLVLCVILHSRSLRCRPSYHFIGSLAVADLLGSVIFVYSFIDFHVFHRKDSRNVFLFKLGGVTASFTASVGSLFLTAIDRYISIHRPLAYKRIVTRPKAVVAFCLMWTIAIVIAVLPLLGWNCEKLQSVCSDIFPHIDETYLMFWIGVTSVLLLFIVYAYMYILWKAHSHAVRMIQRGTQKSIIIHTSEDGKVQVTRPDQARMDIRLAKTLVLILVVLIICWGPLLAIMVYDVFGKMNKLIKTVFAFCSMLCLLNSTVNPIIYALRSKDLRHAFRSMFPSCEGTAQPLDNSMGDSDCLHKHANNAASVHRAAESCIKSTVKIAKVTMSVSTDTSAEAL
T1 sequence (Q9HC97 whole entry): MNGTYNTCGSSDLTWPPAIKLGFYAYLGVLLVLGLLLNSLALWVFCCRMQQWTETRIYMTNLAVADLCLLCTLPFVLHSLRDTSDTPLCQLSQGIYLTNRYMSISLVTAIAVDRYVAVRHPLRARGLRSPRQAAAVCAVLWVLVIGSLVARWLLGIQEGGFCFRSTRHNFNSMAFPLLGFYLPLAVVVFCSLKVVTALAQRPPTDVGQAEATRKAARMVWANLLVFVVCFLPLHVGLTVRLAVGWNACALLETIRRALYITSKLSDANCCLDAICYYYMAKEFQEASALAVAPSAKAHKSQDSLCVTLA
Chain of Peroxisome proliferator-activated receptor gamma/Nuclear receptor coactivator 3 (P37231 whole entry): as the sequence (P37231 whole entry) above
Chain of Peroxisome proliferator-activated receptor gamma/Nuclear receptor coactivator 3 (Q9Y6Q9 whole entry, further chain): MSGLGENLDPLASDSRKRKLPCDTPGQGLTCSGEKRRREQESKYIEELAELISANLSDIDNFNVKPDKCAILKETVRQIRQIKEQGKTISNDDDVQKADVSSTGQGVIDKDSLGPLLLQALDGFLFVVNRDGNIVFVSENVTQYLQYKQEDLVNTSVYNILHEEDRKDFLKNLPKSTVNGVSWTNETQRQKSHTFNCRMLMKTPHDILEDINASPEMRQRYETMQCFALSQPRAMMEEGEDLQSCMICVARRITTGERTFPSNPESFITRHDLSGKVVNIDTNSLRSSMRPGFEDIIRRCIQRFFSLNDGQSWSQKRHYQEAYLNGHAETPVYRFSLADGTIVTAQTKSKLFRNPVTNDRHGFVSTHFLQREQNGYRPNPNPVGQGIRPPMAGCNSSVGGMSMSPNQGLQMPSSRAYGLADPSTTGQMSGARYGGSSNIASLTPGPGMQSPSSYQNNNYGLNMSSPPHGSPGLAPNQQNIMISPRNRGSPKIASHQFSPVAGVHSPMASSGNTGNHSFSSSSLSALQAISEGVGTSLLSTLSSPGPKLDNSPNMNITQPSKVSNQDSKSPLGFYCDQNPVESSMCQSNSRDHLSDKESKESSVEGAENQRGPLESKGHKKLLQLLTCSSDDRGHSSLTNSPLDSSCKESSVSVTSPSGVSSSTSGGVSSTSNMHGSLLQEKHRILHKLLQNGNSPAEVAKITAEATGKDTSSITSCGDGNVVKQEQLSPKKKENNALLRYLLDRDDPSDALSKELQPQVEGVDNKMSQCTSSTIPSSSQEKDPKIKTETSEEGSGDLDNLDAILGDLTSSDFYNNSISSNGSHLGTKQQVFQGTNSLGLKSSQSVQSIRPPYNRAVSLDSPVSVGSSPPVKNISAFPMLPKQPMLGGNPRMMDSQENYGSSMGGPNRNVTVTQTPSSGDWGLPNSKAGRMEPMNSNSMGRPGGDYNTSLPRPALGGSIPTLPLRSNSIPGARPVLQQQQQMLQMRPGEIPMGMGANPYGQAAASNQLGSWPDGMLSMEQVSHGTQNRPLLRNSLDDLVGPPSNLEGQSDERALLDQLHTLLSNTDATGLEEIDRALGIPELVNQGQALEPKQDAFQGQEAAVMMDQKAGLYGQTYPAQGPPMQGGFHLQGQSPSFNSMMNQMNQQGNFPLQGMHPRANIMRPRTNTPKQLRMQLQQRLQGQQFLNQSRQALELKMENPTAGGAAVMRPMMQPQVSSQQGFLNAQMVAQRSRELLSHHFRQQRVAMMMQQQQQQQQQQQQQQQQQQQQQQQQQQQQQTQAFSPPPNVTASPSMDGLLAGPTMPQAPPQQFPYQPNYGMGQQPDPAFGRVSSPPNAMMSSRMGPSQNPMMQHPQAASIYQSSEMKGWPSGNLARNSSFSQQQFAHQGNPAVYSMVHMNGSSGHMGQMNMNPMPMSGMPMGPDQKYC

Consider `CCCC(=O)Nc1c2c(nc3ccccc13)N(c1ccccc1)CC2`, for which the EC50 in test [1] was > 79.4 µM (not active); in test [2] it was > 79.4 µM (inactive); in [3] it was > 79.4 µM (not active).
Consider `COc1ccc(-c2cc(C(=O)Nc3ccc(S(=O)(=O)Nc4onc(C)c4C)cc3)c3ccccc3n2)cc1`, for which the EC50 (in test [4]; at Cannabinoid receptor 2 [9]; at Cannabinoid receptor 1 [10]) was > 32 µM (inactive) in each case. For the same compound, the IC50 in test [5] was 5.33 µM (active); in test [6], 18.2 µM (inactive); in [7], > 32 µM (inactive); in test [8] it was 17.3 µM (active); on Cannabinoid receptor 1 [11] it was 16.9 µM (inactive); on Cannabinoid receptor 2 [12], > 32 µM (inactive).
As to `O=C(NN1C(=O)/C(=C/c2nc3ccccc3[nH]2)SC1=S)c1cccc(Cl)c1`, the EC50 in [1] is > 79.4 µM (not active); in test [13], 7.01 µM (active); in test [2], > 79.4 µM (inactive); in test [3], > 79.4 µM (not active).
Turning to `CC(C)(C)c1ccc(-c2c(-c3nc4ccccc4[nH]3)n[nH]c2-c2ccccc2)cc1`, the EC50 (in test [4]; on Cannabinoid receptor 2 [9]; at Cannabinoid receptor 1 [10]) was > 32 µM (inactive) each time. In addition, the IC50 in test [6] is 11.7 µM (inactive); in test [7] it was > 32 µM (inactive); at Cannabinoid receptor 1 [11], 0.474 µM (active); at Cannabinoid receptor 2 [12] it was 13.9 µM (inactive).
`O=C1c2cccc3cc([N+](=O)[O-])cc(c23)C(=O)N1CCN1CCCC1` [PINAFIDE]: the EC50 was 0.478 µM (active) in the test with BJ [14]; 5.47 µM (inconclusive) in the test on BJ [15]; > 5.53 µM (not active) in test [16]; 9.59 µM (active) in the test on BJ [17]; 5.03 µM (inconclusive) in test [20]; > 150 µM (inconclusive) in the test with BJ [21]. The EC50 in test [22] was 3.11 µM (active). Further, the IC50 was > 80 µM (inactive) in test [18], > 66 µM (inactive) in test [25], > 67.5 µM (inactive) in test [26] and 44.7 µM (inactive) in test [27]. The AC50 in test [19] is 16 µM (inactive); on Paired box protein Pax-8, 0.87 µM (active); in test [23] it was 2.94 µM (active); in test [24], 8.44 µM (active).

In general, EC50 refers to the concentration that produces a half-maximal response. Usually AC50 stands for the concentration giving half of the maximal activity seen.
